From the supplement of paper PMC10307832

compound: COc1cccc2cc(-c3nc([C@H]4CC[C@H](C(=O)O)CC4)n4ncnc(N)c34)[nH]c12 [OSI-027] + Cc1nc(Nc2ncc(C(=O)Nc3c(C)cccc3Cl)s2)cc(N2CCN(CCO)CC2)n1 [Dasatinib] (partner 0.075 µM); assay: relative viability (nuclei count vs DMSO), 5 days (fraction); higher = more cells survive; details: first compound 0.01 µM
How it was run: (§1)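 Lung cancer cell lines, seeded in 1536-well plates, were treated the following day by pin tool with a single drug or with five library-drug doses (not always all listed) in √10 steps on top of a fixed anchor-drug dose. Cells were fixed and nuclei stained in one step after 5 days, and nuclei were counted. Relative viability is the nuclei count for treated wells divided by that for vehicle wells, reported as medians of duplicate plates.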

| Cell Line | relative viability |
| --- | --- |
| LC-2-ad | 0.585 |

same assay, conditions: first compound 0.03162 µM

| Cell Line | relative viability |
| --- | --- |
| H3255 | 0.377 |
| NCI-H1975 | 0.362 |
| PC-14 | 0.253 |
| NCI-H1437 | 0.441 |
| HOP-62 | 0.675 |
| BEN | 0.567 |
| LOU-NH91 | 0.542 |
| NCI-H661 | 0.989 |
| NCI-H1651 | 0.325 |
| PC-3 [JPC-3] | 0.895 |
| SW 1573 | 0.456 |
| LK-2 | 0.266 |
| NCI-H2405 | 0.204 |
| NCI-H1993 | 0.543 |
| ChaGo-K-1 | 0.618 |
| NCI-H1355 | 0.564 |
| NCI-H1915 | 0.307 |

| Cell Line | relative viability |
| --- | --- |
| NCI-H838 | 0.276 |
| A-427 | 0.663 |
| NCI-H2009 | 0.264 |
| ABC-1 | 0.516 |
| EKVX | 0.472 |
| NCI-H2087 | 0.937 |
| NCI-H1734 | 0.408 |
| LCLC-103H | 0.497 |
| LU99A | 0.513 |
| NCI-H460 | 0.462 |
| NCI-H2170 | 0.506 |
| SK-LU-1 | 0.172 |
| COR-L23 | 0.422 |
| HCC-15 | 0.656 |
| NCI-H1944 | 0.204 |
| EMC-BAC-2 | 0.311 |
| LC-2-ad | 0.537 |

same assay, conditions: first compound 0.1 µM

| Cell Line | relative viability |
| --- | --- |
| H3255 | 0.388 |
| NCI-H1975 | 0.334 |
| PC-14 | 0.241 |
| NCI-H1437 | 0.32 |
| HOP-62 | 0.591 |
| BEN | 0.273 |
| LOU-NH91 | 0.471 |
| NCI-H661 | 0.708 |
| NCI-H1651 | 0.352 |
| PC-3 [JPC-3] | 1.03 |
| SW 1573 | 0.477 |
| LK-2 | 0.24 |
| NCI-H2405 | 0.185 |
| NCI-H1993 | 0.469 |
| ChaGo-K-1 | 0.5 |
| NCI-H1355 | 0.534 |
| NCI-H1915 | 0.279 |

| Cell Line | relative viability |
| --- | --- |
| NCI-H838 | 0.224 |
| A-427 | 0.573 |
| NCI-H2009 | 0.248 |
| ABC-1 | 0.384 |
| EKVX | 0.515 |
| NCI-H2087 | 0.923 |
| NCI-H1734 | 0.45 |
| LCLC-103H | 0.434 |
| LU99A | 0.486 |
| NCI-H460 | 0.37 |
| NCI-H2170 | 0.506 |
| SK-LU-1 | 0.178 |
| COR-L23 | 0.424 |
| HCC-15 | 0.624 |
| NCI-H1944 | 0.191 |
| EMC-BAC-2 | 0.308 |
| LC-2-ad | 0.494 |

same assay, conditions: first compound 0.3162 µM

| Cell Line | relative viability |
| --- | --- |
| H3255 | 0.292 |
| NCI-H1975 | 0.301 |
| PC-14 | 0.303 |
| NCI-H1437 | 0.373 |
| HOP-62 | 0.556 |
| BEN | 0.218 |
| LOU-NH91 | 0.407 |
| NCI-H661 | 0.602 |
| NCI-H1651 | 0.358 |
| PC-3 [JPC-3] | 0.936 |
| SW 1573 | 0.494 |
| LK-2 | 0.203 |
| NCI-H2405 | 0.209 |
| NCI-H1993 | 0.541 |
| ChaGo-K-1 | 0.549 |
| NCI-H1355 | 0.409 |
| NCI-H1915 | 0.24 |

| Cell Line | relative viability |
| --- | --- |
| NCI-H838 | 0.227 |
| A-427 | 0.391 |
| NCI-H2009 | 0.213 |
| ABC-1 | 0.486 |
| EKVX | 0.429 |
| NCI-H2087 | 0.611 |
| NCI-H1734 | 0.388 |
| LCLC-103H | 0.439 |
| LU99A | 0.293 |
| NCI-H460 | 0.243 |
| NCI-H2170 | 0.56 |
| SK-LU-1 | 0.127 |
| COR-L23 | 0.386 |
| HCC-15 | 0.486 |
| NCI-H1944 | 0.178 |
| EMC-BAC-2 | 0.249 |
| LC-2-ad | 0.455 |

same assay, conditions: first compound 1 µM

| Cell Line | relative viability |
| --- | --- |
| H3255 | 0.217 |
| NCI-H1975 | 0.316 |
| PC-14 | 0.197 |
| NCI-H1437 | 0.192 |
| HOP-62 | 0.301 |
| BEN | 0.169 |
| LOU-NH91 | 0.392 |
| NCI-H661 | 0.383 |
| NCI-H1651 | 0.213 |
| PC-3 [JPC-3] | 0.494 |
| SW 1573 | 0.331 |
| LK-2 | 0.225 |
| NCI-H2405 | 0.178 |
| NCI-H1993 | 0.549 |
| ChaGo-K-1 | 0.474 |
| NCI-H1355 | 0.324 |
| NCI-H1915 | 0.145 |

| Cell Line | relative viability |
| --- | --- |
| NCI-H838 | 0.239 |
| A-427 | 0.3 |
| NCI-H2009 | 0.207 |
| ABC-1 | 0.216 |
| EKVX | 0.316 |
| NCI-H2087 | 0.453 |
| NCI-H1734 | 0.282 |
| LCLC-103H | 0.27 |
| LU99A | 0.259 |
| NCI-H460 | 0.158 |
| NCI-H2170 | 0.315 |
| SK-LU-1 | 0.134 |
| COR-L23 | 0.208 |
| HCC-15 | 0.366 |
| NCI-H1944 | 0.162 |
| EMC-BAC-2 | 0.225 |
| LC-2-ad | 0.333 |

compound: Cc1nc(NC(=O)N2CCC[C@H]2C(N)=O)sc1-c1ccnc(C(C)(C)C(F)(F)F)c1 [Alpelisib] + CCNC(=O)c1noc(-c2cc(C(C)C)c(O)cc2O)c1-c1ccc(CN2CCOCC2)cc1 [Luminespib] (partner 0.01 µM); assay: as above; details: first compound 0.04 µM
How it was run: as §1

| Cell Line | relative viability |
| --- | --- |
| H3255 | 0.896 |
| NCI-H1975 | 0.227 |
| PC-14 | 0.154 |
| NCI-H1437 | 1.16 |
| HOP-62 | 0.943 |
| BEN | 0.341 |
| LOU-NH91 | 0.239 |
| NCI-H661 | 0.979 |
| NCI-H1651 | 0.78 |
| PC-3 [JPC-3] | 0.731 |
| SW 1573 | 0.175 |
| LK-2 | 0.139 |
| NCI-H2405 | 0.736 |
| NCI-H1993 | 0.751 |
| ChaGo-K-1 | 0.61 |
| NCI-H1355 | 0.679 |
| NCI-H1915 | 0.738 |
| NCI-H838 | 0.429 |
| A-427 | 0.909 |
| NCI-H2009 | 0.995 |
| ABC-1 | 0.432 |
